Experimental data published in patent US20100240683A1, “COMBINATION THERAPY, COMPOSITION AND METHODS FOR THE TREATMENT OF CARDIOVASCULAR DISORDERS” (Syndromex Ltd., priority 2007, published 2010).
Read-outs that look alike come from different tables or passages of the source.

Legend:
[1] = biological target: T1, CYP3A4 (Homo sapiens, UniProt P08684)
[2] = biological target: T2, CYP1A2 (Homo sapiens, UniProt P05177); experiment: Fluorimetric CYP inhibition assay, CYP1A2-CEC
T2 sequence (P05177 1-516): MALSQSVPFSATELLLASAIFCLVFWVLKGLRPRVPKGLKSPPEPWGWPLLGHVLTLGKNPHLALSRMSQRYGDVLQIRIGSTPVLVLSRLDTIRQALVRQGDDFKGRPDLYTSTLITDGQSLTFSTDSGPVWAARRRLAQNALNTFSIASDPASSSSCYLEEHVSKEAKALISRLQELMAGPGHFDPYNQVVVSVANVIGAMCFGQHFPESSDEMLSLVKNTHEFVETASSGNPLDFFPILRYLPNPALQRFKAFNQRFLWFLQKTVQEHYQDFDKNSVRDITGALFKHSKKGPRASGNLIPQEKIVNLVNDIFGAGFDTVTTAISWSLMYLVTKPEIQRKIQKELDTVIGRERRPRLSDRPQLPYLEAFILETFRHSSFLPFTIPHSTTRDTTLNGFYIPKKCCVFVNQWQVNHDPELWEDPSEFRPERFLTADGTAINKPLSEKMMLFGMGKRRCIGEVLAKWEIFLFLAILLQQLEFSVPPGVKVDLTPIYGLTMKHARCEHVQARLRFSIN

[3] = biological target: CYP2D6 (Homo sapiens, UniProt P10635); experiment: Fluorimetric CYP inhibition assay, CYP2D6-AMMC
[4] = biological target: T1, CYP3A4; experiment: in vitro
[5] = biological target: T3, CYP2B6 (Homo sapiens, UniProt P20813); experiment: in vitro
T3 sequence (P20813 1-491): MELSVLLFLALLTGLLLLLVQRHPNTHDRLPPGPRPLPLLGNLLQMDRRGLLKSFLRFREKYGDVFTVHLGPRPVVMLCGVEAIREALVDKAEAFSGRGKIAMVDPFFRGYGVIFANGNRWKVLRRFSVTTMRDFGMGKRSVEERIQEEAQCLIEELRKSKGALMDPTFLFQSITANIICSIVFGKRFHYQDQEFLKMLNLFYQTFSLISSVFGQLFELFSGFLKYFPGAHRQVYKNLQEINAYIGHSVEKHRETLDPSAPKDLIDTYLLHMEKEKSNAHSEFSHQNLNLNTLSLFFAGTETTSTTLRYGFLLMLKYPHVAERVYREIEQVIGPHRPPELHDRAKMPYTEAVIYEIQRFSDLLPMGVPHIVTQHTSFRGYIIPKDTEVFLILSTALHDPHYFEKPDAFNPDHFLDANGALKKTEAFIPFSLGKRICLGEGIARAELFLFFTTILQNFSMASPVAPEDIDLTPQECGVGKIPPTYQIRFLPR

[6] = biological target: CYP2C19 (Homo sapiens, UniProt P33261); experiment: in vitro
[7] = biological target: T4, CYP2C8 (Homo sapiens, UniProt P10632); experiment: in vitro
T4 sequence (P10632 1-490): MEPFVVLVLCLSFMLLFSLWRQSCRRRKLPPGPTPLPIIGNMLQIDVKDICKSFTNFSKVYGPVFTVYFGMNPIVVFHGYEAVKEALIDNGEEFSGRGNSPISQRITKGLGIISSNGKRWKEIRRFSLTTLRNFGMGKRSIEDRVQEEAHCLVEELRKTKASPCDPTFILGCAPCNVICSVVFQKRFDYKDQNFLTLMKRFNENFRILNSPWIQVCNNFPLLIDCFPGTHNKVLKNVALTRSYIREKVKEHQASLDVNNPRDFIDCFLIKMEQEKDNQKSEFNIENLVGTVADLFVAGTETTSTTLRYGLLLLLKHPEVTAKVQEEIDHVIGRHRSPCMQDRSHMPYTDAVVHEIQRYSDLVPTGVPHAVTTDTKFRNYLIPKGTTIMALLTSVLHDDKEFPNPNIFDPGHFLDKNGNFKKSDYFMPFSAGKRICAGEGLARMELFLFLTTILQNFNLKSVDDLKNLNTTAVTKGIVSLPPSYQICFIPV

[8] = biological target: CYP2C9 (Homo sapiens, UniProt P11712); experiment: in vitro
CYP2C9, sequence (P11712 whole entry): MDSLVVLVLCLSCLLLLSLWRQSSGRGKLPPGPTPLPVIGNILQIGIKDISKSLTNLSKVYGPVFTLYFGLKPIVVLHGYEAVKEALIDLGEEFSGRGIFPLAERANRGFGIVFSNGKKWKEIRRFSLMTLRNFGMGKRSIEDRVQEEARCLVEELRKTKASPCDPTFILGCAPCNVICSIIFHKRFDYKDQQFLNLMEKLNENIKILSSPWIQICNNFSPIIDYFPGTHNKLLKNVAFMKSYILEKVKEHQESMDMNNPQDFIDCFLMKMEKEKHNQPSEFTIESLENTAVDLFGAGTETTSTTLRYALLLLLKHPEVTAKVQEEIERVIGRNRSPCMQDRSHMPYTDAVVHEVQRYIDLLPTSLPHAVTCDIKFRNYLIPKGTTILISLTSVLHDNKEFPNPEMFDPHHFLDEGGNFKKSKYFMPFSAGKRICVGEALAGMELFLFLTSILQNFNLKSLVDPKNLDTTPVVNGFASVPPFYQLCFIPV

T1 sequence (P08684 whole entry): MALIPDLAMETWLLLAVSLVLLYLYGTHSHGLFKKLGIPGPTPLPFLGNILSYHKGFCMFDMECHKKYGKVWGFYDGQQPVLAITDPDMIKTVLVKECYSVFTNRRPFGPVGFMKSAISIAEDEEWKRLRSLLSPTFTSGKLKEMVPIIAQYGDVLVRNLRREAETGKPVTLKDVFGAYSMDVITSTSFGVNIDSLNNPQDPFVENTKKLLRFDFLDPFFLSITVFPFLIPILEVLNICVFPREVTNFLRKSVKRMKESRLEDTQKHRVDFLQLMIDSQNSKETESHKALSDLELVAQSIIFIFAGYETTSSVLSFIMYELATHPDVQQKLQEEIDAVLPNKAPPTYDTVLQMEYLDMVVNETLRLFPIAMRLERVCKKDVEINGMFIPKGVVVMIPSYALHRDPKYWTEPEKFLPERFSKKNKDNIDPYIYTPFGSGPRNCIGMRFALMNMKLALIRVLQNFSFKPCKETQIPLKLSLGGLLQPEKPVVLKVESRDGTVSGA
CYP2C19, sequence (P33261 whole entry): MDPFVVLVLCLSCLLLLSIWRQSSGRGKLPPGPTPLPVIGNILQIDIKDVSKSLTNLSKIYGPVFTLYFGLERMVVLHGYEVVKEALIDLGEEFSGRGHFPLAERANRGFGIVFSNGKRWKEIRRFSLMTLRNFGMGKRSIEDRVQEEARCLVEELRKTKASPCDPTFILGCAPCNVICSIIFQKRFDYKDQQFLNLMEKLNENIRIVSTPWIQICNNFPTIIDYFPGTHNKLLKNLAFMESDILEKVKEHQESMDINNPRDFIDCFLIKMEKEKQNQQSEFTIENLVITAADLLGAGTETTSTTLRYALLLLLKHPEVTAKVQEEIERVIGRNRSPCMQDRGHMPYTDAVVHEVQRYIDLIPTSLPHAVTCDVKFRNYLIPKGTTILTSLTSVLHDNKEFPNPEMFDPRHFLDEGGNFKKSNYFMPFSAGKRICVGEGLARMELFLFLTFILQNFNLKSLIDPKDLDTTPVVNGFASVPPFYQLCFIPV
CYP2D6, sequence (P10635 whole entry): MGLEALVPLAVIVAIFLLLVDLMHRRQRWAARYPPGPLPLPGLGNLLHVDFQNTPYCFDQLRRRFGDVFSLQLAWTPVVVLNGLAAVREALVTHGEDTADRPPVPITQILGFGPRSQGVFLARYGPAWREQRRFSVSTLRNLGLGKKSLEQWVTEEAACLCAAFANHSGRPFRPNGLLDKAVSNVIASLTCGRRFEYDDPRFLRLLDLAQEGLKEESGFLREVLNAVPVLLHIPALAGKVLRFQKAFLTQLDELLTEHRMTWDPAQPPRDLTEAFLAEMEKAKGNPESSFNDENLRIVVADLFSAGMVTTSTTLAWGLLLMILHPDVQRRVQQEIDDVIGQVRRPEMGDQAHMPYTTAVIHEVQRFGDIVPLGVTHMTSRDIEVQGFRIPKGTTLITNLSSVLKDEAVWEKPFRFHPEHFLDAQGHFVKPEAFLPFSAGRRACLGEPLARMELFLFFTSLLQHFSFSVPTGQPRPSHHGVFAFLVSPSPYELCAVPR

## CC(C)(CCCCCCCCCCC(C)(C)CC(=O)O)CC(=O)O [M16ββ, 3,3,14,14-tetramethylhexadecane-1,16-dioic acid]
[1]; 1.23 μM
  % Inhibition (set 2): 12%
[1]; 3.7 μM
  % Inhibition (set 2): 2%
[2]
  IC50: > 100 µM
[3]
  IC50: > 100 µM
[4]; % Inhibition (set 1)
  inhibition at 0.05 μM: 0%
  inhibition at 0.41 μM: 0%
[4]; % Inhibition (set 2)
  inhibition at 0.41 μM: 0%
  inhibition at 100 μM: 15%
[5]; % Inhibition (set 1)
  inhibition at 0.05 μM: 1%
  inhibition at 0.41 μM: 1%
  inhibition at 1.23 μM: 4%
  inhibition at 3.7 μM: 0%
  inhibition at 11.11 μM: 5%
  inhibition at 33.33 μM: 7%
  inhibition at 100 μM: 20%
[5]; % Inhibition (set 2)
  inhibition at 0.05 μM: 0%
  inhibition at 0.41 μM: 0%
  inhibition at 1.23 μM: 4%
  inhibition at 3.7 μM: 0%
  inhibition at 11.11 μM: 6%
  inhibition at 33.33 μM: 7%
  inhibition at 100 μM: 19%
[6]; % Inhibition (set 1)
  inhibition at 0.05 μM: 0%
  inhibition at 0.41 μM: 5%
  inhibition at 1.23 μM: 4%
  inhibition at 3.7 μM: 0%
  inhibition at 11.11 μM: 0%
  inhibition at 33.33 μM: 1%
  inhibition at 100 μM: 21%
[6]; % Inhibition (set 2)
  inhibition at 0.05 μM: 0%
  inhibition at 0.41 μM: 1%
  inhibition at 1.23 μM: 0%
  inhibition at 3.7 μM: 0%
  inhibition at 11.11 μM: 0%
  inhibition at 33.33 μM: 1%
  inhibition at 100 μM: 7%
[7]; % Inhibition (set 1)
  inhibition at 0.05 μM: 8%
  inhibition at 0.41 μM: 7%
  inhibition at 1.23 μM: 4%
  inhibition at 3.7 μM: 7%
  inhibition at 11.11 μM: 15%
  inhibition at 33.33 μM: 22%
  inhibition at 100 μM: 46%
[7]; % Inhibition (set 2)
  inhibition at 0.05 μM: 0%
  inhibition at 0.41 μM: 0%
  inhibition at 1.23 μM: 0%
  inhibition at 3.7 μM: 0%
  inhibition at 11.11 μM: 9%
  inhibition at 33.33 μM: 23%
  inhibition at 100 μM: 46%
[8]; % Inhibition (set 1)
  inhibition at 0.05 μM: 0%
  inhibition at 0.41 μM: 0%
  inhibition at 1.23 μM: 3%
  inhibition at 3.7 μM: 13%
  inhibition at 11.11 μM: 19%
  inhibition at 33.33 μM: 34%
  inhibition at 100 μM: 50%
[8]; % Inhibition (set 2)
  inhibition at 0.05 μM: 0%
  inhibition at 0.41 μM: 3%
  inhibition at 1.23 μM: 10%
  inhibition at 3.7 μM: 8%
  inhibition at 11.11 μM: 18%
  inhibition at 33.33 μM: 26%
  inhibition at 100 μM: 44%

## CC(C)(CCCCCCCCCCCCC(C)(C)C(=O)O)C(=O)O [M16αα, 2,2,15,15-tetramethylhexadecane-1,16-dioic acid]
[1]; 0.05 μM
  % Inhibition (set 1): 5%
  % Inhibition (set 2): 1%
[1]; 3.7 μM
  % Inhibition (set 1): 1%
[1]; 33.33 μM
  % Inhibition (set 1): 4%
[2]
  IC50: > 100 µM
[3]
  IC50: > 100 µM
[4]; % Inhibition (set 1)
  inhibition at 0.41 μM: 3%
  inhibition at 100 μM: 23%
[4]; % Inhibition (set 2)
  inhibition at 1.23 μM: 0%
  inhibition at 3.7 μM: 0%
  inhibition at 100 μM: 19%
[5]; % Inhibition (set 1)
  inhibition at 0.05 μM: 0%
  inhibition at 0.41 μM: 7%
  inhibition at 1.23 μM: 4%
  inhibition at 3.7 μM: 29%
  inhibition at 11.11 μM: 8%
  inhibition at 33.33 μM: 17%
  inhibition at 100 μM: 27%
[5]; % Inhibition (set 2)
  inhibition at 0.05 μM: 2%
  inhibition at 0.41 μM: 0%
  inhibition at 1.23 μM: 3%
  inhibition at 3.7 μM: 2%
  inhibition at 11.11 μM: 8%
  inhibition at 33.33 μM: 12%
  inhibition at 100 μM: 28%
[6]; % Inhibition (set 1)
  inhibition at 0.05 μM: 0%
  inhibition at 0.41 μM: 0%
  inhibition at 1.23 μM: 0%
  inhibition at 3.7 μM: 0%
  inhibition at 11.11 μM: 3%
  inhibition at 33.33 μM: 57%
  inhibition at 100 μM: 63%
[6]; % Inhibition (set 2)
  inhibition at 0.05 μM: 1%
  inhibition at 0.41 μM: 2%
  inhibition at 1.23 μM: 4%
  inhibition at 3.7 μM: 4%
  inhibition at 11.11 μM: 12%
  inhibition at 33.33 μM: 43%
  inhibition at 100 μM: 70%
[7]; % Inhibition (set 1)
  inhibition at 0.05 μM: 0%
  inhibition at 0.41 μM: 1%
  inhibition at 1.23 μM: 0%
  inhibition at 3.7 μM: 4%
  inhibition at 11.11 μM: 13%
  inhibition at 33.33 μM: 23%
  inhibition at 100 μM: 43%
[7]; % Inhibition (set 2)
  inhibition at 0.05 μM: 0%
  inhibition at 0.41 μM: 0%
  inhibition at 1.23 μM: 0%
  inhibition at 3.7 μM: 0%
  inhibition at 11.11 μM: 0%
  inhibition at 33.33 μM: 15%
  inhibition at 100 μM: 38%
[8]; % Inhibition (set 1)
  inhibition at 0.05 μM: 4%
  inhibition at 0.41 μM: 5%
  inhibition at 1.23 μM: 2%
  inhibition at 3.7 μM: 6%
  inhibition at 11.11 μM: 15%
  inhibition at 33.33 μM: 15%
  inhibition at 100 μM: 29%
[8]; % Inhibition (set 2)
  inhibition at 0.05 μM: 0%
  inhibition at 0.41 μM: 5%
  inhibition at 1.23 μM: 9%
  inhibition at 3.7 μM: 0%
  inhibition at 11.11 μM: 7%
  inhibition at 33.33 μM: 14%
  inhibition at 100 μM: 31%
